Experimental data reported in patent US20250129070A1, “BIFUNCTIONAL ANDROGEN RECEPTOR COMPOUNDS” (priority 2023, published 2025).

tested on: AR / CBP ternary complex; test: Ternary complex formation assay (sandwich ELISA, AR capture / CBP detection) in VCaP cell lysates; type: cell-based; details: 1.5 hours treatment, sandwich ELISA (AR capture, CBP or p300 detection)
Protocol: Preparation of Mouse Anti-AR Antibody Coated 96 Well Plates
Black MaxiSorp plates: coat with 50 μL of mouse 1/50 diluted AR antibody (Monoclonal Antibody (AR 441 from Thermo Fisher); diluted in phosphate buffered saline (PBS). Spin the liquid to the bottom of the wells, if necessary. Incubate overnight at 4° C. Next day, wash 3 times with 200 μL of TBST. Block with 200 μL of blocking buffer (5% BSA in TBST) at room temperature for 2 hours (BSA: A4503 or A2153 from Sigma). Wash plates 3 times with TBST. Plates are ready for lysates Preparation of dimerizer treated lysates
Culture cells in 96 wells at 50K VCaP cells/well for at least 3 days. Plate in 5% Omega charcoal stripped FBS in total volume of 200 uL. Treat with bifunctional for 1.5 hours by adding 1 μL of 200× stock in DMSO. Aspirate media/compound. Add and pipet-to-mix 70 μL of 1× AlphaLisa Lysis Buffer to each well (Perkin Elmer, AlphaLISA SureFire Ultra, diluted in water). Pipet up and down when adding lysis buffer to disrupt cells. Let lysis proceed for 30 min at 4° C.
Incubate for 1 hour at room temperature. Flick out the lysates. Wash 3 times with TBST. Add 75 μL of rabbit CBP or p300 antibody to each well (diluted 1:5000 in blocking buffer (5% BSA in TBST). CBP antibody: (D6C5) Rabbit mAb #7389; p300 antibody: (D8Z4E) Rabbit mAb #86377. Incubate overnight at 4° C. Wash 3 times with 300 uL TBST, each time on shaker for 5-10 min. Prepare goat anti-rabbit antibody conjugated to HRP (1/100K dilution in blocking buffer) Invitrogen Catalog number: 32260. Add 75 μL of HRP-conjugated goat anti-rabbit antibody. Incubate at room temperature for 1 hour. Flick out the HRP-antibody mixture. Wash 7-8 times with TBST, each time on shaker for 10 min. Later washes try to overflow the wells so that no residual HRP remains bound to the sides of the well. Prepare and add 75 uL/well of QuantaRed Enhance Chemifluorescent HRP Substrate solution. Immediately read fluorescence on BMG ClarioStar (ex: 570/em 585), and repeat the read in 5 minutes and 15 minutes.

| Structure (SMILES) | EC50 |
| --- | --- |
| CC(=O)N1CCc2c(c(N3CCCc4cc(-c5cnn(C)c5)c(C(F)F)cc43)nn2C2CC3(C2)CN(CC2CN(c4ccc(C(=O)NC5C(C)(C)C(Oc6ccc(C#N)c(Cl)c6)C5(C)C)nn4)C2)C3)C1 (centres unmarked) [Compound 212, 6-[3-[[6-[5-acetyl-3-[7-(difluoromethyl)-6-(1-methylpyrazol-4-yl)-3,4-dihydro-2H-quinolin-1-yl]-6,7-dihydro-4H-pyrazolo[4,3-c]pyridin-1-yl]-2-azaspiro [3.3]heptan-2-yl]methyl]azetidin-1-yl]-N-[3-(3-chloro-4-cyano-phenoxy)-2,2,4,4-tetramethyl-cyclobutyl]pyridazine-3-carboxamide] | 10 to 100 nM |
| COc1cc(OC2C(C)(C)C(NC(=O)c3ccc(N4CCC(N(C)C5CCC(n6nc(N7CCCc8cc(-c9cnn(C)c9)c(C(F)F)cc87)c7c6CCN(C(C)=O)C7)CC5)CC4)cc3)C2(C)C)ccc1C#N (centres unmarked) [Compound 280, 4-[4-[[4-[5-acetyl-3-[7-(difluoromethyl)-6-(1-methylpyrazol-4-yl)-3,4-dihydro-2H-quinolin-1-yl]-6,7-dihydro-4H-pyrazolo[4,3-c]pyridin-1-yl]cyclohexyl]-methyl-amino]-1-piperidyl]-N-[3-(4-cyano-3-methoxy-phenoxy)-2,2,4,4-tetramethyl-cyclobutyl]benzamide] | < 1 nM |
| CC(=O)N1CCc2c(c(-c3cccc4cc(-c5cnn(CC6CCN(c7ncc(C(=O)NC8C(C)(C)C(Oc9ccc(C#N)c(Cl)c9)C8(C)C)cn7)CC6)c5)ncc34)nn2C2CCOCC2)C1 (centres unmarked) [Compound 137, 2-[4-[[4-[8-(5-acetyl-1-tetrahydropyran-4-yl-6,7-dihydro-4H-pyrazolo[4,3-c]pyridin-3-yl)-3-isoquinolyl]pyrazol-1-yl]methyl]-1-piperidyl]-N-[3-(3-chloro-4-cyano-phenoxy)-2,2,4,4-tetramethyl-cyclobutyl]pyrimidine-5-carboxamide] | < 1 nM |
| CC(=O)N1CCc2c(c(N3CCCc4cc(-c5cnn(C)c5)c(C(F)F)cc43)nn2C2CCC3(CC2)CCN(c2ncc(C(=O)NC4C(C)(C)C(Oc5ccc(C#N)c(Cl)c5)C4(C)C)cn2)C3)C1 (centres unmarked) [Compound 408, 2-[8-[5-acetyl-3-[7-(difluoromethyl)-6-(1-methylpyrazol-4-yl)-3,4-dihydro-2H-quinolin-1-yl]-6,7-dihydro-4H-pyrazolo[4,3-c]pyridin-1-yl]-2-azaspiro[4.5]decan-2-yl]-N-[3-(3-chloro-4-cyano-phenoxy)-2,2,4,4-tetramethyl-cyclobutyl]pyrimidine-5-carboxamide] | > 100 nM |
| CC(=O)N1CCc2c(c(Nc3ccc(-c4cnn(C)c4)cc3F)nn2C2CCN(C3CCN(c4ncc(C(=O)NC5C(C)(C)C(Oc6ccc(C#N)c(Cl)c6)C5(C)C)cn4)CC3)C2)C1 (centres unmarked) [Compound 8, 2-[4-[3-[5-acetyl-3-[2-fluoro-4-(1-methylpyrazol-4-yl)anilino]-6,7-dihydro-4H-pyrazolo[4,3-c]pyridin-1-yl]pyrrolidin-1-yl]-1-piperidyl]-N-[3-(3-chloro-4-cyano-phenoxy)-2,2,4,4-tetramethyl-cyclobutyl]pyrimidine-5-carboxamide] | > 100 nM |
| CC(=O)N1CCc2c(c(N3CCCc4cc(-c5cnn(C)c5)c(C(F)F)cc43)nn2C2CCC3(CCCN(C4CN(c5ncc(C(=O)NC6C(C)(C)C(Oc7ccc(C#N)c(Cl)c7)C6(C)C)cn5)C4)C3)CC2)C1 (centres unmarked) [Compound 414, 2-[3-[9-[5-acetyl-3-[7-(difluoromethyl)-6-(1-methylpyrazol-4-yl)-3,4-dihydro-2H-quinolin-1-yl]-6,7-dihydro-4H-pyrazolo[4,3-c]pyridin-1-yl]-2-azaspiro[5.5]undecan-2-yl]azetidin-1-yl]-N-[3-(3-chloro-4-cyano-phenoxy)-2,2,4,4-tetramethyl-cyclobutyl]pyrimidine-5-carboxamide] | < 1 nM |
| COc1cc(OC2C(C)(C)C(NC(=O)c3ccc(N4CCC5(CC4)CC(Oc4ccc(-c6cc7c(cc6C(F)F)N(c6nn(C8CCOCC8)c8c6CN(C(C)=O)CC8)CCC7)cc4)C5)cc3)C2(C)C)ccc1C#N (centres unmarked) [Compound 307, 4-[2-[4-[1-(5-acetyl-1-tetrahydropyran-4-yl-6,7-dihydro-4H-pyrazolo[4,3-c]pyridin-3-yl)-7-(difluoromethyl)-3,4-dihydro-2H-quinolin-6-yl]phenoxy]-7-azaspiro[3.5]nonan-7-yl]-N-[3-(4-cyano-3-methoxy-phenoxy)-2,2,4,4-tetramethyl-cyclobutyl]benzamide] | 1 to 10 nM |
| COc1cc(OC2C(C)(C)C(NC(=O)c3ccc(N4CCC(C5CCC(n6nc(N7CCCc8cc(-c9cnn(C)c9)c(C(F)F)cc87)c7c6CCN(C(C)=O)C7)CC5)CC4)cc3)C2(C)C)ccc1C#N (centres unmarked) [Compound 259, 4-[4-[4-[5-acetyl-3-[7-(difluoromethyl)-6-(1-methylpyrazol-4-yl)-3,4-dihydro-2H-quinolin-1-yl]-6,7-dihydro-4H-pyrazolo[4,3-c]pyridin-1-yl]cyclohexyl]-1-piperidyl]-N-[3-(4-cyano-3-methoxy-phenoxy)-2,2,4,4-tetramethyl-cyclobutyl]benzamide] | 1 to 10 nM |
| CC(=O)N1CCc2c(c(N3CCCc4cc(-c5cnn(C)c5)c(C(F)F)cc43)nn2C2CN(CCC3CCN(c4ncc(C(=O)NC5C(C)(C)C(Oc6ccc(C#N)c(Cl)c6)C5(C)C)cn4)CC3)C2)C1 (centres unmarked) [Compound 162, 2-[4-[2-[3-[5-acetyl-3-[7-(difluoromethyl)-6-(1-methylpyrazol-4-yl)-3,4-dihydro-2H-quinolin-1-yl]-6,7-dihydro-4H-pyrazolo[4,3-c]pyridin-1-yl]azetidin-1-yl]ethyl]-1-piperidyl]-N-[3-(3-chloro-4-cyano-phenoxy)-2,2,4,4-tetramethyl-cyclobutyl]pyrimidine-5-carboxamide] | < 1 nM |
| CC(=O)N1CCc2c(c(-c3cccc4cc(-c5cnn(C)c5)ncc34)nn2C2CCN(CC3C(C)CN(c4ncc(C(=O)NC5C(C)(C)C(Oc6ccc(C#N)c(Cl)c6)C5(C)C)cn4)CC3C)CC2)C1 (centres unmarked) [Compound 440, 2-[4-[[4-[5-acetyl-3-[3-(1-methylpyrazol-4-yl)-8-isoquinolyl]-6,7-dihydro-4H-pyrazolo[4,3-c]pyridin-1-yl]-1-piperidyl]methyl]-3,5-dimethyl-1-piperidyl]-N-[3-(3-chloro-4-cyano-phenoxy)-2,2,4,4-tetramethyl-cyclobutyl]pyrimidine-5-carboxamide] | < 1 nM |
| CC(=O)N1CCc2c(c(N3CCCc4cc(-c5cnn(C)c5)c(C(F)F)cc43)nn2C2CN(CCN3CCN(c4ncc(C(=O)NC5C(C)(C)C(Oc6ccc(C#N)c(Cl)c6)C5(C)C)cn4)CC3)C2)C1 (centres unmarked) [Compound 161, 2-[4-[2-[3-[5-acetyl-3-[7-(difluoromethyl)-6-(1-methylpyrazol-4-yl)-3,4-dihydro-2H-quinolin-1-yl]-6,7-dihydro-4H-pyrazolo[4,3-c]pyridin-1-yl]azetidin-1-yl]ethyl]piperazin-1-yl]-N-[3-(3-chloro-4-cyano-phenoxy)-2,2,4,4-tetramethyl-cyclobutyl]pyrimidine-5-carboxamide] | 10 to 100 nM |
| CC(=O)N1CCc2c(c(N3CCCc4cc(-c5cnn(C)c5)c(C(F)F)cc43)nn2C2CCN(C(C)C3CCN(c4ncc(C(=O)NC5C(C)(C)C(Oc6ccc(C#N)c(Cl)c6)C5(C)C)cn4)CC3)CC2)C1 (centres unmarked) [Compound 113, 2-[4-[1-[4-[5-acetyl-3-[7-(difluoromethyl)-6-(1-methylpyrazol-4-yl)-3,4-dihydro-2H-quinolin-1-yl]-6,7-dihydro-4H-pyrazolo[4,3-c]pyridin-1-yl]-1-piperidyl]ethyl]-1-piperidyl]-N-[3-(3-chloro-4-cyano-phenoxy)-2,2,4,4-tetramethyl-cyclobutyl]pyrimidine-5-carboxamide] | < 1 nM |
| CC(=O)N1CCc2c(c(N3CCCc4cc(-c5cnn(C)c5)c(C(F)F)cc43)nn2C2CN(C(=O)C3CCN(c4ncc(C(=O)NC5C(C)(C)C(Oc6ccc(C#N)c(Cl)c6)C5(C)C)cn4)CC3)C2)C1 (centres unmarked) [Compound 119, 2-[4-[3-[5-acetyl-3-[7-(difluoromethyl)-6-(1-methylpyrazol-4-yl)-3,4-dihydro-2H-quinolin-1-yl]-6,7-dihydro-4H-pyrazolo[4,3-c]pyridin-1-yl]azetidine-1-carbonyl]-1-piperidyl]-N-[3-(3-chloro-4-cyano-phenoxy)-2,2,4,4-tetramethyl-cyclobutyl]pyrimidine-5-carboxamide] | < 1 nM |
| CC(=O)N1CCc2c(c(N3CCCc4cc(-c5cnn(C)c5)c(C(F)F)cc43)nn2C2CCN(C3CC(C#Cc4ncc(C(=O)NC5C(C)(C)C(Oc6ccc(C#N)c(Cl)c6)C5(C)C)cn4)C3)CC2)C1 (centres unmarked) [Compound 295, 2-[2-[3-[4-[5-acetyl-3-[7-(difluoromethyl)-6-(1-methylpyrazol-4-yl)-3,4-dihydro-2H-quinolin-1-yl]-6,7-dihydro-4H-pyrazolo[4,3-c]pyridin-1-yl]-1-piperidyl]cyclobutyl]ethynyl]-N-[3-(3-chloro-4-cyano-phenoxy)-2,2,4,4-tetramethyl-cyclobutyl]pyrimidine-5-carboxamide] | < 1 nM |
